Test results from US6603044B1, “Phthalamide derivatives, or salt thereof agrohorticultural insecticide, and method for using the same” (Nihon Nohyaku Co., Ltd., priority 1998, dated 2003).

What was measured:
[1] = tested on: Diamond Back Moth (Plutella xylostella); assay: Insecticidal effect on diamond back moth (Test Example 1); assay type: in vivo; conditions: 50 ppm; Chinese cabbage seedling with deposited eggs immersed about 30 seconds; 25° C.; six days after the immersion
From the text: Insecticidal Effect on Diamond Back Moth (Plutella xylostella)
Adult diamondback moths were released and allowed to oviposit on a Chinese cabbage seedling. Two days after the release, the seedling having the eggs deposited thereon was immersed for about 30 seconds in a liquid chemical prepared by diluting a preparation containing each compound listed in Table 1, 2 or 3 as an active ingredient to adjust the concentration to 50 ppm. After air-dryness, it was allowed to stand in a room thermostatted at 25° C. Six days after the immersion, the hatched insects were counted. The mortality was calculated according to the following equation and the insecticidal effect was judged according to the criterion shown below. The test was carried out with triplicate groups of 10 insects.

[2] = tested on: Smaller tea Tortrix (Adoxophyes sp.); assay: Insecticidal effect on smaller tea tortrix (Test Example 3); assay type: in vivo; conditions: 50 ppm; tea leaf immersed 30 seconds; larvae; 25° C., humidity 70%; eight days after the inoculation
Description: Insecticidal Effect on Smaller tea Tortrix (Adoxophyes sp.)
A leaf of tea tree was immersed for 30 seconds in a liquid chemical containing each compound listed in Table 1, 2 or 3 as an active ingredient to adjust the concentration to 50 ppm. After air-dryness, the leaf was transferred to a plastic dish with a diameter of 9 cm and inoculated with larval smaller tea tortrix. Then, the leaf was allowed to stand in a room thermostatted at 25° C. at a humidity of 70%. Eight days after the inoculation, the dead and alive were counted, and the insecticidal effect was judged according to the same criterion as mentioned in Test Example 1. The test was carried out with triplicate groups of 10 insects.

SMILES | Test Example 1 insecticidal effect (mortality) [1] | Test Example 3 insecticidal effect (mortality) [2]
CCCN(CCSC)C(=O)c1c(F)cccc1C(=O)Nc1ccc(C(F)(C(F)(F)F)C(F)(F)F)cc1C [2-3] | A (100) | A (100)
CCN(CCS(C)(=O)=O)C(=O)c1c(F)cccc1C(=O)Nc1ccc(C(F)(C(F)(F)F)C(F)(F)F)cc1C [2-12] | A (100) | A (100)
CCN(CCC[S+](C)[O-])C(=O)c1c(F)cccc1C(=O)Nc1ccc(C(F)(C(F)(F)F)C(F)(F)F)cc1C (centres unmarked) [2-13] | A (100) | A (100)
CSCC(C)NC(=O)c1ccccc1C(=O)Nc1ccc(C(F)(C(F)(F)F)C(F)(F)F)cc1C (centres unmarked) [Compound No. 16] | A (100) | A (100)
CSCC(C)NC(=O)c1c(I)cccc1C(=O)Nc1ccc(OC(F)(F)F)cc1 (centres unmarked) [compound 8] | A (100) | C (89-80)
CCSCC(C)NC(=O)c1c(I)cccc1C(=O)Nc1ccc(Cl)cc1C (centres unmarked) [compound 24] | A (100) | A (100)
CSCC(C)NC(=O)c1ccc(Cl)c(Cl)c1C(=O)Nc1ccc(OC(F)(F)F)cc1C (centres unmarked) [compound 38] | A (100) | A (100)
CSCC(C)NC(=O)c1cc(Cl)ccc1C(=O)Nc1ccc(C(F)(F)C(F)(F)F)cc1C (centres unmarked) [compound 43] | A (100) | A (100)
CSCC(C)NC(=O)c1c(C(=O)Nc2ccc(OC(F)(F)F)cc2C)ccc(F)c1F (centres unmarked) [compound 44] | A (100) | A (100)
CCC(Oc1ccc(NC(=O)c2cccc(I)c2C(=O)NC(C)CSC)c(C)c1)=C(C(F)(F)F)C(F)(F)F (centres unmarked) [compound 46] | A (100) | A (100)
CSCCNC(=O)c1c(I)cccc1C(=O)Nc1ccc(C(F)(F)C(F)(F)F)cc1C [compound 53] | A (100) | A (100)
CSCCCNC(=O)c1c(I)cccc1C(=O)Nc1ccc(C(F)(C(F)(F)F)C(F)(F)F)cc1C [compound 57] | A (100) | A (100)
Cc1cc(C(F)(F)C(F)(F)F)ccc1NC(=O)c1cccc(I)c1C(=O)NCCSC(C)C [compound 59] | A (100) | A (100)
Cc1cc(C(F)(C(F)(F)F)C(F)(F)F)ccc1NC(=O)c1cccc(I)c1C(=O)NCCSC(C)C [compound 60] | A (100) | A (100)
CCCCSCC(C)NC(=O)c1c(I)cccc1C(=O)Nc1ccc(OC(F)(F)F)cc1C (centres unmarked) [compound 63] | A (100) | A (100)
CCCCSCC(C)NC(=O)c1c(I)cccc1C(=O)Nc1ccc(C(F)(F)C(F)(F)F)cc1C (centres unmarked) [compound 64] | A (100) | A (100)
CCSCCNC(=O)c1c(I)cccc1C(=O)Nc1ccc(C(F)(F)C(F)(F)F)cc1C [compound 72] | A (100) | A (100)
Cc1cc(OC(F)(F)F)ccc1NC(=O)c1cccc(I)c1C(=O)NC(C)CSC1CCCCC1 (centres unmarked) [compound 82] | A (100) | A (100)
Cc1cc(C(F)(F)C(F)(F)F)ccc1NC(=O)c1cccc(I)c1C(=O)NC(C)CSC1CCCCC1 (centres unmarked) [compound 85] | A (100) | A (100)
CSCC(NC(=O)c1c(I)cccc1C(=O)Nc1ccc(C(F)(C(F)(F)F)C(F)(F)F)cc1C)c1ccccc1 (centres unmarked) [compound 89] | A (100) | A (100)
CSCC(NC(=O)c1c(I)cccc1C(=O)Nc1ccc(C(F)(F)C(F)(F)F)cc1C)c1ccccc1 (centres unmarked) [compound 90] | A (100) | A (100)
CSCC(C)NC(=O)c1c(C(=O)Nc2ccc(C(F)(F)C(F)(F)F)cc2C)cccc1[N+](=O)[O-] (centres unmarked) [compound 105] | A (100) | A (100)
CSCC(C)NC(=O)c1ccc(I)cc1C(=O)Nc1ccc(C(F)(F)C(F)(F)F)cc1C (centres unmarked) [compound 111] | A (100) | B (99-90)

SMILES | Test Example 1 insecticidal effect (mortality) [1] | Test Example 3 insecticidal effect (mortality) [2]
Cc1cc(C(F)(C(F)(F)F)C(F)(F)F)ccc1NC(=O)c1cccc(I)c1C(=O)NC(C)CSC(C)(C)C (centres unmarked) [compound 117] | A (100) | A (100)
Cc1cc(C(F)(C(F)(F)F)C(F)(F)F)ccc1NC(=O)c1cccc(I)c1C(=O)NC(C[S+](C)[O-])c1ccccc1 (centres unmarked) [compound 137] | A (100) | A (100)
CSCCCC(C)NC(=O)c1cccc(Cl)c1C(=O)Nc1ccc(C(F)(C(F)(F)F)C(F)(F)F)cc1C (centres unmarked) [compound 155] | A (100) | A (100)
CSCCC(C)NC(=O)c1c(I)cccc1C(=O)Nc1ccc(OC(F)(F)F)cc1C (centres unmarked) [compound 164] | A (100) | A (100)
Cc1cc(C(F)(C(F)(F)F)C(F)(F)F)ccc1NC(=O)c1cccc(Cl)c1C(=O)NC(C)(C)CS(C)(=O)=O [compound 171] | A (100) | A (100)
CCS(=O)(=O)CCCCC(C)NC(=O)c1c(I)cccc1C(=O)Nc1ccc(C(F)(F)C(F)(F)F)cc1C (centres unmarked) [compound 179] | A (100) | A (100)
CCS(=O)(=O)CCCCC(C)NC(=O)c1c(I)cccc1C(=O)Nc1ccc(C(F)(C(F)(F)F)C(F)(F)F)cc1C (centres unmarked) [compound 180] | A (100) | A (100)
CSCCSCC(C)NC(=O)c1c(I)cccc1C(=O)Nc1ccc(OC(F)(F)F)cc1C (centres unmarked) [compound 190] | A (100) | A (100)
CC[S+]([O-])CCCC(C)NC(=O)c1c(I)cccc1C(=O)Nc1ccc(C(F)(C(F)(F)F)C(F)(F)F)cc1C (centres unmarked) [compound 202] | A (100) | A (100)
CCS(=O)(=O)CCCC(C)NC(=O)c1c(Br)cccc1C(=O)Nc1ccc(C(F)(C(F)(F)F)C(F)(F)F)cc1C (centres unmarked) [compound 215] | A (100) | A (100)
CSCC(C)NC(=O)c1c(C(=O)Nc2ccc(Oc3ncc(C(F)(F)F)cc3Cl)cc2C)cccc1[N+](=O)[O-] (centres unmarked) [compound 224] | A (100) | A (100)
CCS(=O)(=O)CC(C)(C)NC(=O)c1c(I)cccc1C(=O)Nc1ccc(OC(F)(F)F)cc1C [compound 251] | – | A (100)
CSCC(C)(C)NC(=O)c1c(C(=O)Nc2ccc(OC(F)(F)F)cc2C)ccc2c1OCO2 [compound 252] | A (100) | A (100)
Cc1cc(OC(F)(F)F)ccc1NC(=O)c1cccc([N+](=O)[O-])c1C(=O)NC(C)C[S+](C)[O-] (centres unmarked) [compound 389] | A (100) | –
Cc1cc(C(F)(F)F)ccc1NC(=O)c1cccc([N+](=O)[O-])c1C(=O)NC(C)C[S+](C)[O-] (centres unmarked) [compound 390] | A (100) | –
Cc1cc(C(F)(F)C(F)(F)F)ccc1NC(=O)c1cccc([N+](=O)[O-])c1C(=O)NC(C)C[S+](C)[O-] (centres unmarked) [compound 391] | A (100) | –
Cc1cc(C(F)(C(F)(F)F)C(F)(F)F)ccc1NC(=O)c1cccc(I)c1C(=O)NC1(C[S+](C)[O-])CCCC1 (centres unmarked) [compound 446] | A (100) | –
Cc1cc(C(F)(C(F)(F)F)C(F)(F)F)ccc1NC(=O)c1cccc(I)c1C(=O)NC1(CS(C)(=O)=O)CCCC1 [compound 447] | A (100) | –
CSCCC(CO)NC(=O)c1c(I)cccc1C(=O)Nc1ccc(C(F)(C(F)(F)F)C(F)(F)F)cc1C (centres unmarked) [compound 452] | A (100) | –
CC(C)CC(C)c1cc(C(F)(C(F)(F)F)C(F)(F)F)ccc1NC(=O)c1cccc(I)c1C(=O)NC(C)(C)C[S+](C)[O-] (centres unmarked) [compound 465] | A (100) | –
CSCC(C)(C)NC(=O)c1c(I)cccc1C(=O)Nc1ccc(C(=O)c2ccc(Cl)cc2)cc1C [compound 469] | A (100) | –
CCN(CC)S(=O)(=O)c1ccc(NC(=O)c2cccc(I)c2C(=O)NC(C)(C)CSC)cc1 [compound 478] | A (100) | –
